We go through 2 compounds from paper PMC6105845, “Nucleotide Prodrug Containing a Nonproteinogenic Amino Acid To Improve Oral Delivery of a Hepatitis C Virus Treatment” (Antimicrobial Agents and Chemotherapy, 2018).

The subject of data set [1] is HCV GT2a replicon. Description: HCV GT2a replicon, stably transfected Huh-Lunet cells. Type of data set: cell-based, hepatitis C virus. Conditions: for EC50: Hepatitis C virus, 72 h, stably transfected Huh-Lunet cells, 3 days. The procedure:
(§1) Primary hepatocytes from humans, hamsters, dogs, and monkeys were purchased from BioreclamationIVT in 12-well plates seeded at confluence (0.88 × 10^6 cells/well). Huh-Lunet cells were obtained from ReBlikon GmbH (Mainz, Germany) ([19]). Huh-1C was derived from a GT1a replicon clone in which HCV replication was cured. All Huh-Lunet- and Huh-1C-based replicon cell lines were cultured in Dulbecco's modified Eagles' medium (DMEM) with GlutaMAX (Invitrogen, Carlsbad, CA) supplemented with 10% fetal bovine serum (FBS; HyClone, Logan, UT) and 100 U/ml penicillin (Invitrogen). Replicon cell lines containing genotype 1a (H77) and 2a (JFH1) were created as previously reported ([20][–][22]). Caco-2 cells were maintained in DMEM with sodium pyruvate, GlutaMAX supplemented with 1% penicillin-streptomycin, 1% nonessential amino acids, and 10% FBS in an incubator set at 37°C, 90% humidity, and 5% CO2.
(§2) GT1a, GT1b, and GT2a are authentic subgenomic replicons of the indicated strain. Creation of these HCV replicons was reported previously ([7]).
(§3) The EC50s, defined as the concentration at which there was a measured 50% decrease in HCV replicon level, were determined in replicon assay as previously described ([24]). Briefly, replicon cells were seeded into 96-well plates. Compounds were serially diluted in DMSO at 200× final concentrations and then added to the assay plate. Luciferase expression was quantified after 3 days of incubation using a commercial luciferase assay (Promega, Madison, WI). Data were analyzed using GraphPad Prism 6.0 (La Jolla, CA).
(§4) X represents log of compound concentration and Y represents replicon replication as the percentage of DMSO control. EC50s were calculated as an average from at least three independent experiments.
For orientation: A replicon is a self-replicating genome or part of one, used to study replication in cells.

Another data set relates to HCV GT1a replicon. Description: HCV GT1a replicon, stably transfected Huh-Lunet cells. The data set is classed as cell-based, hepatitis C virus. Conditions: for EC50: Hepatitis C virus, 72 h, stably transfected Huh-Lunet cells, 3 days. As to the method:
as §1, §2, §3, §4

The target of another data set is T1, CatA (Homo sapiens, UniProt P10619).
T1 construct: purified from peripheral blood mononuclear cells (PBMCs) according to a previously published procedure; from tissue; host or cells: peripheral blood mononuclear cells (PBMCs)
T1 sequence (P10619 29-480): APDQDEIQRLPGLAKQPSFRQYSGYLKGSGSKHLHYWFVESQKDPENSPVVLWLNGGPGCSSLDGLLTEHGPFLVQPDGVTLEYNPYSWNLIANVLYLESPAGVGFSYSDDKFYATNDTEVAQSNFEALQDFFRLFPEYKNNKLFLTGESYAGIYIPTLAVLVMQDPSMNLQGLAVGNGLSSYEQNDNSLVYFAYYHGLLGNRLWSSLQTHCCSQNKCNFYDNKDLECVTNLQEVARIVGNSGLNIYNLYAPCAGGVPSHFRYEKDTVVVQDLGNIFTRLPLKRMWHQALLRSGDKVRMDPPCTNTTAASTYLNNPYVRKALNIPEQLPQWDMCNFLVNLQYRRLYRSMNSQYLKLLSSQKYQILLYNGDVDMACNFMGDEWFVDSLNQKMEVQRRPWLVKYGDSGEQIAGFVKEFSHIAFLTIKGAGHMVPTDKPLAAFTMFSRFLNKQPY
Description: Ester cleavage by CatA. Type of data set: biochemical. Conditions: for Amidate ester cleavage, specific activity: CatA, GS-6620-containing diastereomeric mixture was used. The procedure:
(§5) Biochemical assays studying prodrug cleavage have been described previously ([8]). In brief, the cleavages of GS2 by CATA, CES1, CES2, and HINT1 were assessed in vitro. The reaction substrates and products were monitored over time by high-performance liquid chromatography (HPLC).

The subject of data set [2] is HCV GT2a replicon. Description: HCV GT2a replicon, transiently transfected Huh-1C cells. Conditions: for EC50: Hepatitis C virus, GT2A, 72 h. The data set is classed as cell-based, hepatitis C virus. As to the method:
as §2
(§6) RNA was transcribed in vitro using a MEGAscript […] kit (Ambion, Austin, TX) and transfected into Huh-Lunet and −1C cells using published methods ([21], [22]).
as §3, §4

Data set [3] deals with chimeric HCV replicons GT2b, GT3a, GT4a, GT5a, GT6a. Description: Chimeric replicons with NS5b of GT2b, GT3a, GT4a, GT5a, GT6a in GT1b background, transiently transfected Huh-1C cells. Type of data set: cell-based, hepatitis C virus.
Data set [4] is described as follows: Caco-2 bidirectional permeability. Type of data set: in vitro ADME. Conditions: human; for Papp A→B / Papp B→A / efflux ratio: at thermodynamic solubility limit in fed simulated intestinal fluid; for efflux ratio: read-out: Efflux ratio B→A/A→B. The procedure:
Caco-2 cells between passage 43 and 71 were grown to confluence for ≥21 days on 12- or 24-well polyethylene terephthalate plates (BD Biosciences). The bidirectional permeability of compounds was tested as described previously ([8]). In brief, the donor well contained Hanks' balanced salt solution (HBSS), 10 mM HEPES (pH 6.5), and 15 mM glucose. The receiver well contained HBSS (pH 7.4) and 1% bovine serum albumin (BSA). The cells were dosed on the apical (A) or basolateral (B) side to determine forward (A to B) and reverse (B to A) permeability. Media from the donor and receiver wells were analyzed by LC-MS/MS.

The target in the next data set is T2, CES2 (Homo sapiens, UniProt O00748).
T2 construct: purchased R&D Systems (Minneapolis, MN)
T2 sequence (O00748 27-559): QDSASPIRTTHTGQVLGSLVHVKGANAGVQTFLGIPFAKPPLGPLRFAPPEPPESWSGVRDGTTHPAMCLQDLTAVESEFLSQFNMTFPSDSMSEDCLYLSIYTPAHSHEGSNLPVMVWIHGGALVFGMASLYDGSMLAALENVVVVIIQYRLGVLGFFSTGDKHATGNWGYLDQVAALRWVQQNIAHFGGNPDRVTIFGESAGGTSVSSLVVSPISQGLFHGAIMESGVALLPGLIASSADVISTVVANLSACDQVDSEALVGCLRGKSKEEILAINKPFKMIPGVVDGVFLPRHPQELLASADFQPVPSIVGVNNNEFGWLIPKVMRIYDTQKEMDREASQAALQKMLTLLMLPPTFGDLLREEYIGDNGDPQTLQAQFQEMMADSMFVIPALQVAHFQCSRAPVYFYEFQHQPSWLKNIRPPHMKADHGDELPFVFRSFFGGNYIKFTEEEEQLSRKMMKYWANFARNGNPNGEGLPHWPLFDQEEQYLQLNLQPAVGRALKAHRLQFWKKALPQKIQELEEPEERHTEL
Description: Ester cleavage by CES2. Type of data set: biochemical. Conditions: GS-6620-containing diastereomeric mixture was used. The procedure:
as §5

Data set [5] concerns HCV GT1a, GT1b and GT2a replicons. Description: HCV replicons GT1a, GT1b, GT2a in Huh-1C cells, summary across genotypes. Type of data set: cell-based, hepatitis C virus. The procedure:
as §2, §6, §3, §4

A word on the Papp A→B: it is the apparent permeability from the apical to the basolateral side of a cell layer. For orientation: Papp B→A means how fast a substance crosses the layer from the basolateral side. With `CC(C)OC(=O)C(C)(C)N[P@](=O)(OC[C@H]1O[C@@](C#N)(c2ccc3c(N)ncnn23)[C@](C)(O)[C@@H]1O)Oc1ccccc1` [GS2], the “Fold (GS2/GS-6620)” value in the data set on HCV GT2a replicon [1] (EC50 ratio, GT2a, Huh-Lunet) came out at 50; with HCV GT1a replicon (EC50 ratio, Huh-Lunet), 3.5; in the data set with HCV GT2a replicon [2] (EC50 ratio, GT2a, Huh-1C), 2.3. Also, the EC50 with HCV GT2a replicon [1] (GT2a) was 25000 nM; in the data set on HCV GT1a replicon, 380 ± 150 nM; in the data set with HCV GT2a replicon [2], 61 ± 8 nM; in data set [3] (Hepatitis C virus, read-out: potency), 91 to 158 nM. Moreover, the figures for the “Amidate ester cleavage, specific activity” value (from here on “Amidate ester cleavage”) on CatA and at CES2 were 385 pmol/min/µg and “Stable”, respectively. In addition, the “CatA activity lower than toward GS-6620-containing diastereomeric mixture” value at CatA (isopropyl ester cleavage) came out at 11 fold. The “relative potency to GS-6620” value in data set [3] (chimeric replicons GT2b-GT6a, Huh-1C) was at most 2 fold. The compound also registered a Papp A→B in data set [4] of 2.6 ×10⁻⁶ cm/s. This compound also displayed a Papp B→A in data set [4] of 6.7 ×10⁻⁶ cm/s. Further, the efflux ratio in data set [4] was 2.5. This compound also registered a Papp A→B at 10 μM in data set [4] (tested at 10 μM) of 0.4 ×10⁻⁶ cm/s. The compound further returned an apparent permeability from basolateral to apical (Papp B→A) at 10 μM in data set [4] (tested at 10 μM) of 9.3 ×10⁻⁶ cm/s. Further, the “potency relative to the fast-eluting isomer (more potent)” value in data set [5] (GT1a, 1b, 2a, Huh-1C) is “approximately 4 fold”. In data set [5] (Huh-1C cells), the “activity relative to GS-6620, average across the three genotypes” value is listed as at most 3 fold.
In the data set with HCV GT2a replicon [1] (GT2a), `CC(C)OC(=O)[C@H](C)N[P@](=O)(OC[C@H]1O[C@@](C#N)(c2ccc3c(N)ncnn23)[C@](C)(O)[C@@H]1OC(=O)C(C)C)Oc1ccccc1` [GS-6620, reference compound] had an EC50 of 500 ± 160 nM. For the same compound, in the data set on HCV GT2a replicon [1] (Huh-Lunet vs Huh-1C 2a replicons), the “difference in activity across the 2a replicons” value is listed as at most 19 fold. The EC50 in the data set on HCV GT1a replicon was determined as 110 ± 50 nM. On CatA, the “Amidate ester cleavage” value is on record as 4,163 pmol/min · μg. This compound also returned an EC50 in the data set on HCV GT2a replicon [2] of 27 ± 10 nM. In data set [4], the Papp A→B was 1.8 ×10⁻⁶ cm/s, the Papp B→A is 11 ×10⁻⁶ cm/s and the efflux ratio was 5.8. At CES2, the “3′-Ester cleavage, specific activity” value was determined as 60.1 pmol/min/µg and the “Amidate ester cleavage” value is “Stable”.
